Laboratory results reported in article PMC5224920, “Assessing the mechanism and therapeutic potential of modulators of the human Mediator complex-associated protein kinases” (eLife, 2016).

Test system: 12 single or co-culture in vitro tissue models of primary cells
Test: Culture/co-culture cell model panel, extracellular biomarkers (DiscoveRx); for CCL2/MCP-1: reference of the scale not given here; for CXCL8/IL-8: reference of the scale not given here; for CXCL9/MIG: reference of the scale not given here; for IL-1alpha: reference of the scale not given here; for M-CSF: reference of the scale not given here; for PBMC Cytotoxicity: reference of the scale not given here; for SRB: reference of the scale not given here; for sTNF-alpha: reference of the scale not given here
Format: cell-based, human
Conditions: for B cell Proliferation / PBMC Cytotoxicity / Secreted IgG / sIL-2 / sIL-6 / sIL-17A / sIL-17F / sTNF-alpha: BT
[1] = HDF3CGF stimulated fibroblasts, 1.00E0 nM
[2] = HDF3CGF stimulated fibroblasts, 1.00E1 nM
[3] = HDF3CGF stimulated fibroblasts, 1.00E2 nM
[4] = HDF3CGF stimulated fibroblasts, 1.00E3 nM

Cn1ncc2cc(-c3cnc(N)c(Cl)c3N3CCC4(CCNC4=O)CC3)ccc21 [CMPD 3]
SRB (BENo, 1.00E3 nM): 0.000914
tPA (BENo, 1.00E3 nM): -0.008
uPA (BENo, 1.00E3 nM): 0.00377
CCL26/Eotaxin-3 (BENo, 1.00E4 nM): 0.042
CD54/ICAM-1 (BENo, 1.00E4 nM): 0.016
CD87/uPAR (BENo, 1.00E4 nM): 0.038
CXCL8/IL-8 (BENo, 1.00E4 nM): 0.023
CXCL9/MIG (BENo, 1.00E4 nM): 0.059
CXCL10/IP-10 (BENo, 1.00E4 nM): 0.042
CXCL11/I-TAC (BENo, 1.00E4 nM): 0.073
EGFR (BENo, 1.00E4 nM): 0.00756
HLA-DR (BENo, 1.00E4 nM): 0.014
IL-1alpha (BENo, 1.00E4 nM): -0.053
Keratin 8/18 (BENo, 1.00E4 nM): 0.041
MMP-1 (BENo, 1.00E4 nM): -0.026
MMP-9 (BENo, 1.00E4 nM): 0.010
PAI-I (BENo, 1.00E4 nM): -0.144
SRB (BENo, 1.00E4 nM): -0.006
tPA (BENo, 1.00E4 nM): 0.015
uPA (BENo, 1.00E4 nM): -0.00171
CCL2/MCP-1 (BF4T, 1.00E0 nM): -0.034
CCL26/Eotaxin-3 (BF4T, 1.00E0 nM): -0.012
CD54/ICAM-1 (BF4T, 1.00E0 nM): 0.007
CD90 (BF4T, 1.00E0 nM): -0.021
CD106/VCAM-1 (BF4T, 1.00E0 nM): 0.067
CXCL8/IL-8 (BF4T, 1.00E0 nM): 0.013
IL-1alpha (BF4T, 1.00E0 nM): 0.00747
Keratin 8/18 (BF4T, 1.00E0 nM): 0.00256
MMP-1 (BF4T, 1.00E0 nM): 0.013
MMP-3 (BF4T, 1.00E0 nM): 0.056
MMP-9 (BF4T, 1.00E0 nM): 0.030
PAI-I (BF4T, 1.00E0 nM): 0.049
SRB (BF4T, 1.00E0 nM): 0.00349
tPA (BF4T, 1.00E0 nM): 0.039
uPA (BF4T, 1.00E0 nM): 0.035
CCL2/MCP-1 (BF4T, 1.00E1 nM): -0.011
CCL26/Eotaxin-3 (BF4T, 1.00E1 nM): -0.071
CD54/ICAM-1 (BF4T, 1.00E1 nM): -0.035
CD90 (BF4T, 1.00E1 nM): 0.005
CD106/VCAM-1 (BF4T, 1.00E1 nM): -0.00425
CXCL8/IL-8 (BF4T, 1.00E1 nM): 0.046
IL-1alpha (BF4T, 1.00E1 nM): 0.008
Keratin 8/18 (BF4T, 1.00E1 nM): 0.009
MMP-1 (BF4T, 1.00E1 nM): -0.00365
MMP-3 (BF4T, 1.00E1 nM): 0.023
MMP-9 (BF4T, 1.00E1 nM): 0.007
PAI-I (BF4T, 1.00E1 nM): -0.00638
SRB (BF4T, 1.00E1 nM): 0.000434
tPA (BF4T, 1.00E1 nM): 0.032
uPA (BF4T, 1.00E1 nM): -0.000167
CCL2/MCP-1 (BF4T, 1.00E2 nM): -0.034
CCL26/Eotaxin-3 (BF4T, 1.00E2 nM): -0.085
CD54/ICAM-1 (BF4T, 1.00E2 nM): -0.034
CD90 (BF4T, 1.00E2 nM): 0.00329
CD106/VCAM-1 (BF4T, 1.00E2 nM): -0.010
CXCL8/IL-8 (BF4T, 1.00E2 nM): 0.040
IL-1alpha (BF4T, 1.00E2 nM): -0.00155
Keratin 8/18 (BF4T, 1.00E2 nM): 0.017
MMP-1 (BF4T, 1.00E2 nM): -0.009
MMP-3 (BF4T, 1.00E2 nM): 0.032
MMP-9 (BF4T, 1.00E2 nM): -0.020
PAI-I (BF4T, 1.00E2 nM): -0.00143
SRB (BF4T, 1.00E2 nM): 0.00276
tPA (BF4T, 1.00E2 nM): 0.041
uPA (BF4T, 1.00E2 nM): 0.017
CCL2/MCP-1 (BF4T, 1.00E3 nM): -0.042
CCL26/Eotaxin-3 (BF4T, 1.00E3 nM): -0.098
CD54/ICAM-1 (BF4T, 1.00E3 nM): -0.035
CD90 (BF4T, 1.00E3 nM): 0.00842
CD106/VCAM-1 (BF4T, 1.00E3 nM): -0.023
CXCL8/IL-8 (BF4T, 1.00E3 nM): 0.030
IL-1alpha (BF4T, 1.00E3 nM): -0.009
Keratin 8/18 (BF4T, 1.00E3 nM): 0.034
MMP-1 (BF4T, 1.00E3 nM): 0.000873
MMP-3 (BF4T, 1.00E3 nM): 0.030
MMP-9 (BF4T, 1.00E3 nM): -0.009
PAI-I (BF4T, 1.00E3 nM): 0.022
SRB (BF4T, 1.00E3 nM): 0.00179
tPA (BF4T, 1.00E3 nM): 0.045
uPA (BF4T, 1.00E3 nM): 0.019
CCL2/MCP-1 (BF4T, 1.00E4 nM): -0.010
CCL26/Eotaxin-3 (BF4T, 1.00E4 nM): -0.092
CD54/ICAM-1 (BF4T, 1.00E4 nM): -0.042
CD90 (BF4T, 1.00E4 nM): 0.017
CD106/VCAM-1 (BF4T, 1.00E4 nM): 0.005
CXCL8/IL-8 (BF4T, 1.00E4 nM): 0.022
IL-1alpha (BF4T, 1.00E4 nM): -0.002
Keratin 8/18 (BF4T, 1.00E4 nM): 0.038
MMP-1 (BF4T, 1.00E4 nM): 0.00226
MMP-3 (BF4T, 1.00E4 nM): 0.073
MMP-9 (BF4T, 1.00E4 nM): 0.010
PAI-I (BF4T, 1.00E4 nM): 0.013
SRB (BF4T, 1.00E4 nM): 0.000467
tPA (BF4T, 1.00E4 nM): 0.028
uPA (BF4T, 1.00E4 nM): -0.035
B cell Proliferation (1.00E0 nM): 0.00438
PBMC Cytotoxicity (1.00E0 nM): 0.034
Secreted IgG (1.00E0 nM): -0.074
sIL-2 (1.00E0 nM): 0.110
sIL-6 (1.00E0 nM): 0.008
sIL-17A (1.00E0 nM): 0.110
sIL-17F (1.00E0 nM): -0.037
sTNF-alpha (1.00E0 nM): 0.089
B cell Proliferation (1.00E1 nM): -0.011
PBMC Cytotoxicity (1.00E1 nM): -0.016
Secreted IgG (1.00E1 nM): 0.026
sIL-2 (1.00E1 nM): 0.017
sIL-6 (1.00E1 nM): -0.016
sIL-17A (1.00E1 nM): 0.095
sIL-17F (1.00E1 nM): -0.399
sTNF-alpha (1.00E1 nM): -0.021
B cell Proliferation (1.00E2 nM): -0.056
PBMC Cytotoxicity (1.00E2 nM): -0.027
Secreted IgG (1.00E2 nM): -0.165
sIL-2 (1.00E2 nM): 0.084
sIL-6 (1.00E2 nM): 0.046
sIL-17A (1.00E2 nM): 0.184
sIL-17F (1.00E2 nM): -0.384
sTNF-alpha (1.00E2 nM): 0.022
B cell Proliferation (1.00E3 nM): -0.058
PBMC Cytotoxicity (1.00E3 nM): -0.050
Secreted IgG (1.00E3 nM): -0.370
sIL-2 (1.00E3 nM): -0.083
sIL-6 (1.00E3 nM): -0.147
sIL-17A (1.00E3 nM): 0.263
sIL-17F (1.00E3 nM): -0.522
sTNF-alpha (1.00E3 nM): -0.114
B cell Proliferation (1.00E4 nM): -0.233
PBMC Cytotoxicity (1.00E4 nM): -0.092
Secreted IgG (1.00E4 nM): -0.611
sIL-2 (1.00E4 nM): -0.213
sIL-6 (1.00E4 nM): -0.493
sIL-17A (1.00E4 nM): 0.164
sIL-17F (1.00E4 nM): -0.874
sTNF-alpha (1.00E4 nM): -0.249
CCL2/MCP-1 [1]: -0.000698
CD54/ICAM-1 [1]: 0.022
CD106/VCAM-1 [1]: -0.007
CXCL8/IL-8 [1]: -0.00379
CXCL9/MIG [1]: 0.00441
CXCL10/IP-10 [1]: 0.006
CXCL11/I-TAC [1]: 0.016
Collagen I [1]: 0.078
Collagen III [1]: 0.045
EGFR [1]: 0.070
M-CSF [1]: 0.015
MMP-1 [1]: 0.046
PAI-I [1]: 0.072
Proliferation_72hr [1]: -0.019
SRB [1]: -0.009
TIMP-1 [1]: 0.031
TIMP-2 [1]: 0.091
CCL2/MCP-1 [2]: -0.016
CD54/ICAM-1 [2]: -0.00318
CD106/VCAM-1 [2]: 0.013
CXCL8/IL-8 [2]: -0.026
CXCL9/MIG [2]: -0.00175
CXCL10/IP-10 [2]: 0.035
CXCL11/I-TAC [2]: -0.00346
Collagen I [2]: 0.095
Collagen III [2]: 0.043
EGFR [2]: -0.010
M-CSF [2]: -0.053
MMP-1 [2]: 0.052
PAI-I [2]: -0.000592
Proliferation_72hr [2]: -0.139
SRB [2]: -0.015
TIMP-1 [2]: -0.019
TIMP-2 [2]: 0.138
CCL2/MCP-1 [3]: -0.095
CD54/ICAM-1 [3]: -0.046
CD106/VCAM-1 [3]: 0.00848
CXCL8/IL-8 [3]: -0.030
CXCL9/MIG [3]: -0.053
CXCL10/IP-10 [3]: 0.038
CXCL11/I-TAC [3]: -0.019
Collagen I [3]: 0.072
Collagen III [3]: 0.069
EGFR [3]: -0.024
M-CSF [3]: -0.078
MMP-1 [3]: 0.030
PAI-I [3]: -0.00555
Proliferation_72hr [3]: -0.249
SRB [3]: -0.018
TIMP-1 [3]: -0.057
TIMP-2 [3]: 0.140
CCL2/MCP-1 [4]: -0.140
CD54/ICAM-1 [4]: -0.051
CD106/VCAM-1 [4]: 0.034
CXCL8/IL-8 [4]: -0.084
CXCL9/MIG [4]: -0.075
CXCL10/IP-10 [4]: 0.033
CXCL11/I-TAC [4]: -0.016
Collagen I [4]: 0.079
Collagen III [4]: 0.097
